These results are taken from patent EP2951180B1, “2,6,7,8 SUBSTITUTED PURINES AS HDM2 INHIBITORS” (Merck Sharp & Dohme Corp., priority 2013, dated 2014).

Read-outs that look alike come from different tables or passages of the source.

One may read the IC50 as the point on the concentration scale where inhibition reaches its midpoint.

The assay concerns the target T1, HDM2 (Homo sapiens, UniProt Q00987).
T1 construct: Thioredoxin (N); made in house; host or cells: E. coli strain BL21(DE3)Rosetta
Briefly: HDM2 FRET assay (inhibition of binding of FITC labeled p53-pocket peptide to HDM2). Particulars: for IC50: read-out: FRET IC50. A digest of the protocol:
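Signal is read as the 520/495 nm emission ratio and converted to percent inhibition; nonlinear sigmoidal regression yields IC50. The assay mixes HDM2 (0.5 nM), FITC-p53 peptide (3 nM) and Tb anti-His antibody (0.25 nM) at 0.1% DMSO.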

Setting [1] is: 0.5 nM HDM2 (residues 17 to 125), 3nM peptide, two hour incubation at room temperature.

T1 sequence (Q00987 17-125): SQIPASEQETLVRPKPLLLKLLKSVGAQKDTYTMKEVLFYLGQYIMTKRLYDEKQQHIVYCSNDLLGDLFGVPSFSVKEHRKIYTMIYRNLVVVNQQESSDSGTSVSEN

In the case of `C[C@@H](Nc1nc(-c2noc(=O)[nH]2)nc2nc(N3CCC[C@H]3CF)n(C[C@H]3CC[C@H](C)CC3)c12)C1CCC1` [Example 11.8, 3-(6-{[(1R)-1-cyclobutylethyl]amino}-8-[(2S)-2-(fluoromethyl)pyrrolidin-1-yl]-7-[(trans-4-methylcyclohexyl)methyl]-7H-purin-2-yl)-1,2,4-oxadiazol-5(4H)-one], the half-inhibitory concentration (IC50) (Table 11) is 2.36 nM.

Turning to `COC1(C)CN(c2nc3nc(-c4noc(=O)[nH]4)nc(N[C@H](C)C4CCC4)c3n2C[C@H]2CC[C@H](C)CC2)C1` [Example 11.102, 3-(6-{[(1R)-1-cyclobutylethyl]amino}-8-(3-methoxy-3-methylazetidin-1-yl)-7-[(trans-4-methylcyclohexyl)methyl]-7H-purin-2-yl)-1,2,4-oxadiazol-5(2H)-one], the concentration for half-maximal inhibition (IC50) (Table 11) was determined as 20.8 nM.

For `COC1(c2nc3nc(-c4n[nH]c(=O)o4)nc(-c4cncc(Cl)c4)c3n2C[C@H]2CC[C@H](C)CC2)CCCCC1` [Example 23.76, 5-{6-(5-chloropyridin-3-yl)-8-(1-methoxycyclohexyl)-7-[(trans-4-methylcyclohexyl)methyl] -7H-purin-2-yl}-1,3,4-oxadiazol-2(3H)-one], the IC50 (Table 23) was 14.1 nM.

Turning to `CCCC1CCCN1c1nc2nc(-c3noc(=O)[nH]3)nc(N[C@H](C)C3CCC3)c2n1C[C@H]1CC[C@H](C)CC1` (stereo partly drawn) [Example 11.35, 3-[6-{[(1R)-1-cyclobutylethyl]amino}-7-[(trans-4-methylcyclohexyl)methyl]-8-(2-propylpyrrolidin-1-yl)-7H-purin-2-yl]-1,2,4-oxadiazol-5(2H)-one], the 50% inhibitory concentration (IC50) (Table 11) came out at 4.4 nM.

Consider `CC1CCN(c2nc3nc(-c4noc(=O)[nH]4)nc(N[C@H](C)C4CCC4)c3n2C[C@H]2CC[C@H](C)CC2)C(c2ccccc2)C1` (single isomer, unassigned) [Example 11.69], for which the IC50 (Table 11) is 17.3 nM.

As for `CC(c1ccccc1)c1nc2nc(-c3noc(=O)[nH]3)nc(N[C@H](C)C3CCC3)c2n1C[C@H]1CC[C@H](C)CC1` (single isomer, unassigned) [Example 21.15], under “Table 21”, the IC50 is 2.04 nM.

Regarding `C[C@@H](Nc1nc(-c2noc(=O)[nH]2)nc2nc(C3(c4ccccc4)CC3)n(C[C@H]3CC[C@H](C)CC3)c12)C1CCC1` [Example 20.5, 3-[6-{[(1R)-1-cyclobutylethyl]amino}-7-[(trans-4-methylcyclohexyl)methyl]-8-(1-phenylcyclopropyl)-7H-purin-2-yl]-1,2,4-oxadiazol-5(4H)-one], the IC50 (Table 20) was 4.98 nM.

Turning to `C[C@H]1OCCN(c2nc3nc(-c4n[nH]c(=O)o4)nc(-c4cncc(Cl)c4)c3n2C[C@H]2CC[C@H](C)CC2)[C@@H]1c1ccccc1` [Example 16.133, 5-{6-(5-chloropyridin-3-yl)-7-[(trans-4-methylcyclohexyl)methyl]-8-[(2R,3R)-2-methyl-3-phenylmorpholin-4-yl]-7H -purin-2-yl}-1,3,4-oxadiazol-2(3H)-one], under setting [1], the IC50 is 0.569 nM.

With `C[C@@H](Nc1nc(-c2noc(=O)[nH]2)nc2nc(C3CCC3)n(C[C@H]3CC[C@H](C)CC3)c12)C1CCC1` [Example 22.70, 3-(8-cyclobutyl-6-{[(1R)-1-cyclobutylethyl]amino}-7-[(trans-4-methylcyclohexyl)methyl]-7H-purin-2-yl)-1,2,4-oxadiazol-5(4H)-one], the concentration for half-maximal inhibition (IC50) (Table 22) is 15.1 nM.

`COC(=O)c1nc(N[C@H](C)C2CCC2)c2c(n1)nc(N1CCOC[C@H]1c1ccccc1)n2C[C@H]1CC[C@H](C)CC1` [Example 12.13, Methyl-6-{[(1R)-1-cyclobutylethyl]amino}-7-[(trans-4-methylcyclohexyl)methyl]-8-[(3R)-3-phenylmorpholin-4-yl]-7H-purine-2-carboxylate]: the IC50 under setting [1] was 49.4 nM.

Consider `C[C@@H](Nc1nc(-c2noc(=O)[nH]2)nc2nc(-c3nccs3)n(C[C@H]3CC[C@H](C)CC3)c12)C1CCC1` [Example 15.12, 3-(6-(((R)-1-cyclobutylethyl)amino)-7-((trans-4-methylcyclohexyl)methyl)-8-(thiazol-2-yl)-7H-purin-2-yl)-1,2,4-oxadiazol-5(4H)-one], for which the 50% inhibitory concentration (IC50) under setting [1] amounted to 6.28 nM.

For the compound `COCC1CCCCN1c1nc2nc(-c3noc(=O)[nH]3)nc(N[C@H](C)C3CCC3)c2n1Cc1ccc(C(F)(F)F)cc1` (stereo partly drawn) [Example 9.111, 3-(6-{[(1R)-1-cyclobutylethyl]amino}-8-[2-(methoxymethyl)piperidin-1-yl]-7-[4-(trifluoromethyl)benzyl]-7H-purin-2-yl)-1,2,4-oxadiazol-5(4H)-one], where the note is “Table 9”, the concentration for half-maximal inhibition (IC50) stood at 8.78 nM.

With `CC(C)CC1CCCN1c1nc2nc(-c3noc(=O)[nH]3)nc(N[C@H](C)C3CCC3)c2n1Cc1ccc(C(F)(F)F)cc1` (stereo partly drawn) [Example 9.91, 3-(6-{[(1R)-1-cyclobutylethyl]amino}-8-[2-(2-methylpropyl)pyrrolidin-1-yl]-7-[4-(trifluoromethyl)benzyl]-7H-purin-2-yl)-1,2,4-oxadiazol-5(4H)-one], the IC50 (Table 9) turned out to be 19.4 nM.

With `C[C@@H](Nc1nc(C(=O)O)nc2nc(N3CCCCC3c3cccnc3)n(C[C@H]3CC[C@H](C)CC3)c12)C1CCC1` (stereo partly drawn) [Example 11.19, 6-{[(1R)-1-cyclobutylethyl]amino}-7-[(trans-4-methylcyclohexyl)methyl]-8-(2-pyridin-3-ylpiperidin-1-yl)-7H-purine-2-carboxylic acid], the IC50 (Table 11) worked out at 0.895 nM.

As for `CC[C@H](C)Nc1nc(C(=O)O)nc2nc(-c3cccc(C)c3)n(Cc3ccc(C(F)(F)F)cc3)c12` [Example 6.61, 8-(3-methylphenyl)-6-{[(1S)-1-methylpropyl]amino}-7-[4-(trifluoromethyl)benzyl]-7H-purine-2-carboxylic acid], the inhibition at 1 µM (read-out: inh. at 1000 nM (FRET)) was 41%.

In the case of `C[C@@H](Nc1nc(-c2noc(=O)[nH]2)nc2nc(N3CCC(F)(F)CC3)n(C[C@H]3CC[C@H](C)CC3)c12)C1CCC1` [Example 11.80, 3-(6-{[(1R)-1-cyclobutylethyl]amino}-8-(4,4-difluoropiperidin-1-yl)-7-[(trans-4-methylcyclohexyl)methyl]-7H-purin-2-yl)-1,2,4-oxadiazol-5(2H)-one], the IC50 (Table 11) is 25.9 nM.

As to `C[C@H]1CC[C@H](Cn2c(N3CCOC[C@H]3c3ccccc3)nc3nc(-c4n[nH]c(=O)o4)nc(C4CCCCC4)c32)CC1` [Example 16.166, 5-{6-cyclohexyl-7-[(trans-4-methylcyclohexyl)methyl]-8-[(3R)-3-phenylmorpholin-4-yl]-7H -purin-2-yl}-1,3,4-oxadiazol-2(3H)-one], the 50% inhibitory concentration (IC50) under setting [1] was 9.22 nM.

Turning to `C[C@H]1COCCN1c1nc2nc(-c3noc(=O)[nH]3)nc(-c3cccc(Cl)c3)c2n1C[C@H]1CC[C@H](C)CC1` [Example 16.2, 3-(6-(3-chlorophenyl)-7-(((trans)-4-methylcyclohexyl)methyl)-8-((S)-3-methylmorpholino)-7H-purin-2-yl)-1,2,4-oxadiazol-5(4H)-one], the IC50 under setting [1] amounted to 106 nM.

Turning to `C=CCN(c1nc2nc(C(=O)O)nc(N[C@H](C)C3CCC3)c2n1Cc1ccc(C(F)(F)F)cc1)C(C)c1ccccn1` (stereo partly drawn) [Example 10.30, 8-(Allyl(1-(pyridin-2-yl)ethyl)amino)-6-(((R)-1-cyclobutylethyl)amino)-7-(4-(trifluoromethyl)benzyl)-7H-purine-2-carboxylic acid], the half-maximal inhibitory concentration (IC50) (Table 10) was determined as 9.07 nM.
